{"source": "patent US8796466B2", "about": "“Hepatitis C virus inhibitors” (Bristol-Myers Squibb Company, priority 2009, dated 2014)", "data": [{"system": "HCV 1b genotype", "assay": "HCV Replicon assay (HCV 1b genotype)", "type": "cell-based, Hepatitis C virus", "settings": "Hepatitis C virus; HCV 1b genotype replicon; class symbol; read-out: Range (EC50 values against HCV 1b)", "method_in_brief": "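HCV-neo replicon cells, wild-type plus lines carrying NS5A-region mutations, were exposed to compound; luciferase-reporter replicon variants were also used.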", "units": {"EC50": "nM"}, "values": [{"compound": "COC(=O)N[C@H](C(=O)N1[C@@H]2C[C@@H]2C[C@H]1c1ncc(-c2ccc(/C=C/c3ccc(-c4cnc([C@@H]5C[C@H]6C[C@H]6N5C(=O)[C@@H](NC(=O)OC)C(C)C)[nH]4)cc3)cc2)[nH]1)C(C)C", "note": "[Example M13, methyl ((1S)-1-(((1R,3S,5R)-3-(4-(4-((E)-2-(4-(2-((1R,3S,5R)-2-((2S)-2-((methoxycarbonyl)amino)-3-methylbutanoyl)-2-azabicyclo[3.1.0]hex-3-yl)-1H-imidazol-4-yl)phenyl)vinyl)phenyl)-1H-imidazol-2-yl)-2-azabicyclo[3.1.0]hex-2-yl)carbonyl)-2-methylpropyl)carbamate]", "EC50": "0.002 to 0.099"}, {"compound": "COC(=O)N[C@H](C(=O)N1[C@@H]2C[C@@H]2C[C@H]1c1nc(-c2ccc(C#Cc3ccc(-c4[nH]c([C@@H]5C[C@H]6C[C@H]6N5C(=O)[C@@H](NC(=O)OC)C(C)C)nc4Cl)cc3)cc2)c[nH]1)C(C)C", "note": "[Example M8, methyl ((1S)-1-(((1R,3S,5R)-3-(4-chloro-5-(4-((4-(2-((1R,3S,5R)-2-((2S)-2-((methoxycarbonyl)amino)-3-methylbutanoyl)-2-azabicyclo[3.1.0]hex-3-yl)-1H-imidazol-4-yl)phenyl)ethynyl)phenyl)-1H-imidazol-2-yl)-2-azabicyclo[3.1.0]hex-2-yl)carbonyl)-2-methylpropyl)carbamate]", "EC50": "0.002 to 0.099"}, {"compound": "COC(=O)N[C@@H](C(=O)N1CCC[C@H]1c1nc(-c2ccc(Oc3ccc(-c4c[nH]c([C@@H]5CCCN5C(=O)[C@H](NC(=O)OC)c5ccccc5)n4)cc3)cc2)c[nH]1)c1ccccc1", "note": "[OL-3, dimethyl (oxybis(4,1-phenylene-1H-imidazole-4,2-diyl(2S)-2,1-pyrrolidinediyl((1R)-2-oxo-1-phenyl-2,1-ethanediyl)))biscarbamate]", "EC50": "1 to 9.9"}, {"compound": "COC(=O)N[C@H](C(=O)N1CCOCC1c1ncc(-c2ccc(C#Cc3ccc(-c4cnc(C5COCCN5C(=O)[C@@H](NC(=O)OC)C(C)C)[nH]4)cc3)cc2)[nH]1)C(C)C", "note": "(stereo in doubt) [Example N5, methyl ((1S)-1-(((3S)-3-(4-(4-((4-(2-((3S)-4-((2S)-2-((methoxycarbonyl)amino)-3-methylbutanoyl)-3-morpholinyl)-1H-imidazol-4-yl)phenyl)ethynyl)phenyl)-1H-imidazol-2-yl)-4-morpholinyl)carbonyl)-2-methylpropyl)carbamate]", "EC50": "0.002 to 0.099"}, {"compound": "COC(=O)N[C@H](C(=O)N1C[C@@H](C)C[C@H]1c1ncc(-c2ccc([C@H]3C[C@@H]3c3ccc(-c4cnc([C@@H]5C[C@H](C)CN5C(=O)[C@@H](NC(=O)OC)C5CCOCC5)[nH]4)cc3)cc2)[nH]1)C1CCOCC1", "note": "[Example M9.8, dimethyl ((1S,2S)-1,2-cyclopropanediylbis(4,1-phenylene-1H-imidazole-4,2-diyl((2S,4S)-4-methyl-2,1-pyrrolidinediyl)((1S)-2-oxo-1-(tetrahydro-2H-pyran-4-yl)-2,1-ethanediyl)))biscarbamate]", "EC50": "0.002 to 0.099"}]}, {"system": "HCV", "assay": "not given", "settings": "literature references; cited from earlier work", "values": [{"compound": "cyclosporin A", "activity against HCV in clinical trials": "active against HCV"}]}]}
